Reference: patent publication US11559528B2, “BACE1 inhibition for the treatment of cancer” (The Cleveland Clinic Foundation, priority 2019, dated 2023)
Entries after “also recorded” stand apart in the source; their conditions may differ.

How the values were obtained:
[1] = system: STAT3 (pSTAT3-Y705); assay: Immunoblot of STAT3 activating phosphorylation in U937-derived M2 macrophages; format: cell-based, human; conditions: MK-8931 50 μg/mL three days
Text: FIG. 7, panels A-G. BACE1 Maintains M2 Macrophages through STAT3 Activation (A) Immunoblot analyses of STAT3 and STAT6 activation (pSTAT3-Y705 and pSTAT6-Y641) in U937-derived M2 macrophages affected by BACE1 knockdown. […] (B) Immunoblot analysis of STAT3 and STAT6 activation (pSTAT3-Y705 and pSTAT6-Y641) in U937-derived M2 macrophages in response to MK-8931 treatment. […] (C-E) In vivo analysis of STAT3 activating phosphorylation in TAMs by double immunofluorescent staining of IBA1 with pSTAT3-Y705 in GBM xenografts treated with MK-8931 or vehicle control. GBM xenografts were established by implantation of glioma stem cells (T4121) through intracranial injection. […] Representative images (C) showing the fluorescent staining of IBA1 (in green) and the pSTAT3 (in red) in MK-8931-treated or control GBM xenografts. […] Scale bar represents 3 μM. Ctl: Control. MK: MK-8931. […] Ectopic expression of STAT3-C attenuated the M2 to M1 switch caused by BACE1 knockdown.

[2] = system: intracranial xenografts of lung ADC (H1002); assay: Intracranial xenografts of lung adenocarcinoma (H1002) brain metastases; format: in vivo, mouse; conditions: 30 mg/kg once daily oral
Description: The lung cancer cells (H1002, ADC) expressing luciferase were transplanted into mouse brains to establish intracranial xenografts of lung ADC. […] Data are shown as mean±SEM. * p<0.05, *** p<0.001, and NS (not significant)≥0.05; Student's t-test.
The lung ADC cancer cells (H1002) expressing luciferase were transplanted into mouse brains to establish intracranial xenografts of lung ADC. […] IVIS was performed twice per week to monitor tumor growth. When humane endpoints occur, mouse was anesthetized and brains with xenografts were harvested for further analyses. […] Frozen xenograft sections were immunostained with a specific antibody against cleaved caspase-3 (in green) and counterstained with DAPI (in blue). […] Frozen xenograft sections were immunostained with a specific antibody against cleaved GLUT1 (in green) and counterstained with DAPI (in blue). […] Frozen xenograft sections were immunostained with a specific antibody against Ki-67 (in green) and counterstained with DAPI (in blue). […] Data are shown as mean±SEM of at least 6 images from 3-5 mice. * p<0.05 and ** p<0.01; Student's t-test.
In brief, GSCs (T4121 and T387) or lung ADC cells (H1002) expressing luciferase were injected into the right cerebral cortex at a depth of 3.5 mm. Seven days after the implantation, IVIS was performed twice per week to monitor the tumor growth under the Spectrum CT Imaging System (PerkinElmer) before and after treatment. […] Mouse brains bearing the tumors were collected for immunofluorescent, histochemical and histological analyses.
(§3) Primary antibodies were added to the sections or cells and incubated overnight at 4° C. […] After the incubation of the primary antibodies, the sections or cells were washed three times with cold PBS for five minutes each and then incubated with the secondary antibodies for one hour at room temperature. […] Finally, images were captured by a fluorescence microscopy (Leica DM4000) and further analyzed with ImageJ software.

[3] = system: H1002 and H146 lung cancer cells; assay: Cell titer viability assay on lung cancer cells; format: cell-based, human; conditions: indicated concentrations, 72 hours, n=3
Description: (§1) (A) Effects of BACE1 inhibitors on lung cancer cell proliferation. H1002 and H146 lung cancer cells were treated with the indicated concentrations of the BACE1 inhibitor AZD3293, MK-8931, AZD3839, or PF-06751979 (PF) for 72 hours. Cell viability was assessed by cell titer assay (n=3). (B-D) A preclinical trial of MK-8931 for lung cancer treatment in xenograft models. H1002 lung cancer cells (5×106) were transplanted into mouse right flank through subcutaneous injection to establish subcutaneous lung cancer xenografts. […] Tumors dissected from mice of each group were photographed (C) and weighed (D). […] Data are shown as mean SEM. p **<0.01, Student's t-test.

[4] = system: H1002 lung cancer cells; assay: Subcutaneous lung cancer xenografts (H1002); format: in vivo, mouse; conditions: 50 mg/kg once daily oral gavage, from two weeks after inoculation; p<0.01
Description: as §1

[5] = system: HepG2 liver cancer cells; assay: Subcutaneous liver cancer xenografts (HepG2); format: in vivo, mouse; conditions: 50 mg/kg once daily oral gavage, from two weeks after inoculation; p<0.05
Text: (§2) (A-C) A preclinical trial of MK-8931 for liver cancer treatment xenograft models. HepG2 liver cancer cells (5×106) were transplanted into mouse right flank through subcutaneous injection to establish subcutaneous liver cancer xenografts. […] Tumors dissected from mice of each group were photographed (B) and weighed (C).

[6] = system: AGS gastric cancer cells; assay: Subcutaneous stomach cancer xenografts (AGS); format: in vivo, mouse; conditions: 50 mg/kg once daily oral gavage, from two weeks after inoculation; p<0.05
Text: as §2, with “FIG. 22, panels A-C, show treatment with the BACE1 Inhibitor MK-8931 reduced tumor growth of gastric cancer. (A-C)” for “(A-C)”, “stomach” for “liver”, “treatment in” for “treatment”, “AGS gastric” for “HepG2 liver”, “(3×106)” for “(5×106)”

[7] = system: GBM xenografts derived from T4121 GSCs; assay: Intracranial GBM xenografts from T4121 glioma stem cells; format: in vivo, mouse
[8] = cited from earlier work
[9] = system: U937-derived M2 macrophages; assay: Immunoblot of macrophage markers in U937-derived M2 macrophages; set-up: expression of M2 macrophage markers (CD163 and ARG1): dose or concentration left out as unconfirmed
Description: In brief, U937 cells were primed by PMA (5 nM) for two days to generate M0 macrophages and then incubated with IL4 (20 ng/mL), IL10 (20 ng/mL), and TGFβ (20 ng/mL) for three days to produce M2-like macrophages. (B) Immunoblot analyses of BACE1, the M2 macrophage markers (CD163 and ARG1), and the total macrophage marker IBA1 in U937 monocytes and the U937-derived M2 macrophages expressing shRNAs against BACE1 (shBACE1) or non-targeting sequence (NT). […] (D) Immunoblot analyses of the M2 macrophage markers (CD163 and ARG1), the M1 macrophage markers (iNOS and HLA-DR), and the total macrophage marker IBA1 in the U937-derived M2 macrophages expressing shRNAs against BACE1 (shBACE1: #1 or #2) or non-targeting control (shNT). The U937-derived M2 macrophages were transduced with shBACE1 shNT through lentiviral infection.
In brief, U937 cells grown in a 10-cm tissue culture dish were primed by PMA (5 nM) for two days to produce M0 macrophages. Then the M0 macrophages were further induced by IL4 (20 ng/mL, Peprotech, 200-04), IL10 (20 ng/mL, Peprotech, 200-10), and TGFβ (20 ng/mL, Peprotech, 200-21) for three days to generate M2 macrophages.
In brief, cells were lysed with the RIPA buffer [50 mM TrisHCl (pH7.4), 150 mM NaCl, 2 mM EDTA, 1% (v/v) NP-40, 0.1% (w/v) SDS, protease inhibitor (one tablet per 10 mL RIPA buffer, Roche)] for 20 minutes on ice. […] The lysates were collected and subjected to SDS-PAGE and blotted onto the PVDF membranes (ASI, XR730). After blockade with 5% (w/v) non-fat milk (RPI, M17200) in TBST, the membranes were incubated with primary antibodies overnight at 4° C. After the incubation of the first antibodies, the membranes were washed three times with TBST for ten minutes each. Then, the membranes were incubated with the second HRP-linked antibodies in the 5% milk for one hour at room temperature.

[10] = system: GBM xenografts derived from T4121 GSCs; assay: MK-8931 combined with low dose irradiation in T4121 GBM xenografts
Description: Glioma stem cells (T4121 GSCs) expressing luciferase were transplanted into mouse brains through intracranial injection to establish orthotopic GBM xenografts. Irradiation (2 Gy) was performed on Day 8 and Day 16. […] Representative bioluminescent images (B) at day 7 (before treatment) and day 15 (treatment for one week) are shown. […] Data are shown as mean±SEM. * p<0.05, ** p<0.01, * ** p<0.001, and NS (not significant)≥0.05 as indicated; Student's t-test. Ctl: Control; IR: Irradiation. […] Data are shown as mean±SEM. Log-rank analysis was used to assess the significance. Significances were shown as indicated. Ctl: Control; IR: irradiation.
Frozen xenograft sections were co-immunostained with specific antibodies against IBA1 (in green) and CD163 (in red) or HLA-DR (in red) and counterstained with DAPI (in blue). Representative immunofluorescent images showing the staining of IBA1 and the M2 TAM marker CD163 (A) or IBA1 and the M1 TAM marker HLA-DR (B) in the GBM xenografts. […] (D and E). […] Frozen xenografts sections were immunostained with a specific antibody against cleaved caspase-3 (in green) and counterstained with DAPI (in blue). […] Data are shown as mean±SEM from at least 5 images of 3-5 mice. * p<0.05 and ** p<0.01; Student's t-test. Scale bar represents 3 μM. Ctl: Control; IR: Irradiation; CC-3: Cleaved caspase-3.
Seven days after the implantation, IVIS was performed twice per week to monitor the tumor growth under the Spectrum CT Imaging System (PerkinElmer) before and after treatment. […] Mouse brains bearing the tumors were collected for immunofluorescent, histochemical and histological analyses.
Irradiation (IR) was performed with the Pantek X-ray irradiator (once per week) at low dose (2 Gy). To protect the mice and limit the side effect of irradiation, anesthetized mice were covered by a lead plate and only the tumor implantation sites were exposed to the fractioned radiation. Mice were sacrificed at the indicated time points or upon the appearance of the neurological signs. […] Only animals with accidental death (for example, due to infection or intracranial injection) were excluded from the data analysis.
as §3

[11] = 30 mg/kg once daily oral gavage two weeks, p<0.001
[12] = 0, 5, 10, 25, 50, and 100 μg/mL for three days
[13] = 50 μg/mL for 0, 12, 24, 48, 72, or 96 hours
[14] = IR 2 Gy on Day 8 and Day 16 plus MK-8931 30 mg/kg once daily oral from Day 9, 30 mg/kg

CN1C(N)=N[C@](C)(c2cc(NC(=O)c3ccc(F)cn3)ccc2F)CS1(=O)=O [MK-8931]
activating phosphorylation of STAT3 (pSTAT3-Y705) [1]: significantly down-regulated | tumor growth (mean bioluminescence) ([2]; Days 7, 14 and 21): significantly inhibited tumor growth of lung ADC brain metastases | M1 TAMs (HLA-DR+/IBA1+ cells) ([2]; p<0.001): significantly increased M1 TAMs | M2 TAMs (CD163+/IBA1+ cells) ([2]; p<0.001): significantly reduced M2 TAMs | survival (Kaplan-Meier) ([2]; p<0.001 by log-rank): significantly extended the survival of animals bearing the intracranial lung ADC xenografts | cell proliferation (fraction of Ki-67+ cells) ([2]; p<0.01): significantly reduced cell proliferation | apoptosis (fraction of cleaved caspase-3+ cells) ([2]; p<0.05): significantly augmented apoptosis | in vivo TAM phagocytosis (inclusion bodies) ([2]; p<0.05): significantly increased TAM phagocytosis against human lung ADC cells | vessel density (GLUT1+ cells) ([2]; p<0.05): significantly reduced vessel density | lung cancer cell proliferation (cell viability) [3]: suppressed lung cancer cell proliferation | tumor growth (tumor weight) [4]: markedly inhibited lung tumor growth | tumor growth (tumor weight) [5]: significantly inhibited liver tumor growth | tumor growth (tumor weight) [6]: significantly reduced tumor growth of gastric cancer | IL1β expression (IHC intensity) [7, 11]: significantly induced IL1β expression | IL10 expression (IHC intensity) [7, 11]: significantly reduced IL10 expression | TGF-β expression (IHC intensity) [7, 11]: significantly reduced TGF-β expression | TNFα expression (IHC intensity) [7, 11]: significantly induced TNFα expression | tumor growth (mean bioluminescence) ([7]; 30 mg/kg/daily oral, Days 7, 14, and 21): significantly inhibited tumor growth of GBM xenografts | survival (Kaplan-Meier) ([7]; 30 mg/kg/daily oral, log-rank p<0.01): significantly extended the survival of mice bearing the GBM tumors | apoptosis (cleaved caspase-3+ cells) ([7]; 30 mg/kg/daily oral, p<0.001): significantly increased apoptosis | GSC population (SOX2+ cells) ([7]; 30 mg/kg/daily oral, p<0.01): significantly reduced GSCs | proliferative cells (Ki-67+) ([7]; 30 mg/kg/daily oral, p<0.01): significantly reduced proliferative cells | vessel density (CD31) ([7]; 30 mg/kg/daily oral, p<0.01): significantly reduced vessel density | efficacy in phase 3 AD clinical trials ([8]; AD patients): ineffectiveness in controlling AD progression or improving life quality of AD patients | tolerability / safety in AD clinical trials ([8]; patients, Phase I to Phase III): well-tolerated for patients; also recorded: very safe in the clinical trials for AD treatment; also recorded: well-tolerated in human and showed little toxic effect; also recorded: very safe for patients | M1 marker expression (iNOS and HLA-DR), dose series [9, 12]: induced M1 marker expression | M2 marker expression (CD163 and ARG1), dose series [9, 12]: inhibited M2 marker expression in a dose-dependent manner | M1 marker expression (iNOS and HLA-DR), time course [9, 13]: induced M1 marker expression in a time-dependent fashion | M2 marker expression (CD163 and ARG1), time course [9, 13]: inhibited M2 marker expression | M2 to M1 switch with ectopic expression of constitutively activated STAT3 (STAT3-C) ([9]; MK-8931 50 μg/mL three days, STAT3-C-Flag vs vector): attenuated the M2 to M1 switch induced by MK-8931 treatment | expression of total macrophage marker IBA1 ([9]; MK-8931 (50 g/mL) three days): little effect | expression of M2 macrophage markers (CD163 and ARG1) ([9]; MK-8931 three days): reduced expression of the M2 macrophage markers | survival (Kaplan-Meier), IR plus MK-8931 [10, 14]: synergized with MK-8931 treatment to extend survival of the tumor-bearing animals; also recorded: longest survival extension among four experimental groups | tumor growth (mean bioluminescence), IR plus MK-8931 [10, 14]: significantly synergized with MK-8931 treatment to inhibit GBM tumor growth; also recorded: strongest inhibition on GBM growth | TAM subtype (CD163+ M2 vs HLA-DR+ M1), IR plus MK-8931 ([10]; IR (2×2 Gy) plus MK-8931): effectively converted M2 TAMs (CD163+) into M1 macrophages (HLA-DR^+) | apoptosis (fraction of cleaved caspase-3+ cells), IR plus MK-8931 ([10]; IR (2×2 Gy) plus MK-8931 30 mg/kg, mean±SEM): 25.9±3.1% | apoptosis (fraction of cleaved caspase-3+ cells), MK-8931 treatment alone ([10]; MK-8931 30 mg/kg alone, mean±SEM): 10.4±0.9%
